Reference: PubChem BioAssay AID2060906 (Molecular Pharmacology Branch, DTP, NCI, 2025)

System: 485176-168-R4-J1-PDC complex spheroid growth
Experiment: Anticancer human tumor 485176-168-R4-J1-PDC patient-derived pancreatic adenocarcinoma cell line growth inhibition [RAS]
Conditions: for IC50: curve of first compound; for viability, T/C: stronger effect = lower value
In short: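 Tumour cells grown as complex spheroids with HUVEC endothelial cells and mesenchymal stem cells, treated with RAS pathway inhibitor combinations. Each agent spans half-log steps from near clinical Cmax, or 10 microM where Cmax is unknown.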

[1] = second compound 0.000949 µM, first compound 0.0316 µM
[2] = second compound 0.000949 µM, first compound 0.1 µM
[3] = second compound 0.000949 µM, first compound 0.316 µM
[4] = second compound 0.000949 µM, first compound 1 µM
[5] = second compound 0.000949 µM, first compound 3.16 µM
[6] = second compound 0.000949 µM, first compound 10 µM
[7] = second compound 0.003 µM, first compound 0.0316 µM
[8] = second compound 0.003 µM, first compound 0.1 µM
[9] = second compound 0.003 µM, first compound 0.316 µM
[10] = second compound 0.003 µM, first compound 1 µM
[11] = second compound 0.003 µM, first compound 3.16 µM
[12] = second compound 0.003 µM, first compound 10 µM
[13] = second compound 0.00949 µM, first compound 0.0316 µM
[14] = second compound 0.00949 µM, first compound 0.1 µM
[15] = second compound 0.00949 µM, first compound 0.316 µM
[16] = second compound 0.00949 µM, first compound 1 µM
[17] = second compound 0.00949 µM, first compound 3.16 µM
[18] = second compound 0.00949 µM, first compound 10 µM
[19] = second compound 0.03 µM, first compound 0.0316 µM
[20] = second compound 0.03 µM, first compound 0.1 µM
[21] = second compound 0.03 µM, first compound 0.316 µM
[22] = second compound 0.03 µM, first compound 1 µM
[23] = second compound 0.03 µM, first compound 3.16 µM
[24] = second compound 0.03 µM, first compound 10 µM
[25] = second compound 0.0949 µM, first compound 0.0316 µM
[26] = second compound 0.0949 µM, first compound 0.1 µM
[27] = second compound 0.0949 µM, first compound 0.316 µM
[28] = second compound 0.0949 µM, first compound 1 µM
[29] = second compound 0.0949 µM, first compound 3.16 µM
[30] = second compound 0.0949 µM, first compound 10 µM
[31] = second compound 0.3 µM, first compound 0.0316 µM
[32] = second compound 0.3 µM, first compound 0.1 µM
[33] = second compound 0.3 µM, first compound 0.316 µM
[34] = second compound 0.3 µM, first compound 1 µM
[35] = second compound 0.3 µM, first compound 3.16 µM
[36] = second compound 0.3 µM, first compound 10 µM
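Further: spheroids exposed to compounds for seven days before readout.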
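Wherever viability, T/C is given: luminescence viability expressed relative to DMSO vehicle wells set as 100%.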

CC(C)NCC(C(=O)N1CCN(c2ncnc3c2C(C)CC3O)CC1)c1ccc(Cl)cc1 (centres undefined) + CCn1c(-c2cc(N3CCN(C)CC3)cnc2C(C)OC)c2c3cc(ccc31)-c1csc(n1)CC(NC(=O)C1CC1C)C(=O)N1CCCC(N1)C(=O)OCC(C)(C)C2
IC50 (second compound 0.000949 µM): 2.33 µM
IC50 (second compound 0.003 µM): 3.71 µM
IC50 (second compound 0.00949 µM): 1.65 µM
IC50 (second compound 0.03 µM): 0.847 µM
IC50 (second compound 0.0949 µM): 0.721 µM
IC50 (second compound 0.3 µM): 0.79 µM
viability, T/C [1]: 116%
viability, T/C [2]: 99.5%
viability, T/C [3]: 78.7%
viability, T/C [4]: 64.8%
viability, T/C [5]: 43.6%
viability, T/C [6]: 33%
viability, T/C [7]: 82.2%
viability, T/C [8]: 101%
viability, T/C [9]: 74.3%
viability, T/C [10]: 65%
viability, T/C [11]: 55.1%
viability, T/C [12]: 38.8%
viability, T/C [13]: 97.9%
viability, T/C [14]: 79.7%
viability, T/C [15]: 82.4%
viability, T/C [16]: 56.8%
viability, T/C [17]: 38.7%
viability, T/C [18]: 32.3%
viability, T/C [19]: 94.7%
viability, T/C [20]: 73.8%
viability, T/C [21]: 81.2%
viability, T/C [22]: 44.4%
viability, T/C [23]: 40.5%
viability, T/C [24]: 31.7%
viability, T/C [25]: 81.3%
viability, T/C [26]: 67.9%
viability, T/C [27]: 70.3%
viability, T/C [28]: 41.3%
viability, T/C [29]: 35.5%
viability, T/C [30]: 26.8%
viability, T/C [31]: 72.2%
viability, T/C [32]: 72.1%
viability, T/C [33]: 57.5%
viability, T/C [34]: 46.4%
viability, T/C [35]: 38.4%
viability, T/C [36]: 26.8%

CC(C)NCC(C(=O)N1CCN(c2ncnc3c2C(C)CC3O)CC1)c1ccc(Cl)cc1 (centres undefined) + CCn1c(-c2cccnc2C(C)OC)c2c3cc(ccc31)N1CCOC(CC(NC(=O)C(C(C)C)N(C)C(=O)C3(F)CCN(C(=O)C#CC(C)(C)N(C)C)CC3)C(=O)N3CCCC(N3)C(=O)OCC(C)(C)C2)C1
IC50 (second compound 0.000949 µM): 2.21 µM
IC50 (second compound 0.003 µM): 1.7 µM
IC50 (second compound 0.00949 µM): 1.25 µM
IC50 (second compound 0.03 µM): 1.18 µM
IC50 (second compound 0.0949 µM): 1.29 µM
IC50 (second compound 0.3 µM): 0.51 µM
viability, T/C [1]: 98.8%
viability, T/C [2]: 86%
viability, T/C [3]: 79.7%
viability, T/C [4]: 60%
viability, T/C [5]: 44.9%
viability, T/C [6]: 30%
viability, T/C [7]: 98.4%
viability, T/C [8]: 91%
viability, T/C [9]: 76.7%
viability, T/C [10]: 59.1%
viability, T/C [11]: 39.6%
viability, T/C [12]: 28.9%
viability, T/C [13]: 91.8%
viability, T/C [14]: 103%
viability, T/C [15]: 73%
viability, T/C [16]: 52.6%
viability, T/C [17]: 45.4%
viability, T/C [18]: 31.2%
viability, T/C [19]: 84.5%
viability, T/C [20]: 91.1%
viability, T/C [21]: 74.1%
viability, T/C [22]: 53.7%
viability, T/C [23]: 34.7%
viability, T/C [24]: 32.4%
viability, T/C [25]: 94%
viability, T/C [26]: 90.7%
viability, T/C [27]: 78.7%
viability, T/C [28]: 50.4%
viability, T/C [29]: 40.9%
viability, T/C [30]: 26.9%
viability, T/C [31]: 73.6%
viability, T/C [32]: 81%
viability, T/C [33]: 51.7%
viability, T/C [34]: 40.6%
viability, T/C [35]: 27.3%
viability, T/C [36]: 17.6%
